Where two headings read alike, the source gives them in different places.
System: MV4:11 human cancer cell lines
Experiment: Cellular viability / anti-proliferative activity, CellTiter-Glo, 5 day protocol
Assay type: cell-based
Conditions: Homo sapiens, MV4-11, 120 h, read-out: GI50 on cellular proliferation of MV4:11 human cancer cell lines
Summary of the method: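 Cells seeded at 200 per well (7200 cells/mL) with compound in 2-fold serial dilutions from 30 μM top (22 points), 0.3% DMSO final. Viability read by CellTiter-Glo luminescence after 5 days; GI50 from sigmoidal dose-response fit, mean of at least two replicates.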

[1] = MV4:11 cells, 5 day incubation, CellTiter-Glo, mean of minimum two replicates

SMILES	GI50 [1]	GI50
COc1ccnc(CN2Cc3c(cc(Cn4ccn(C)c4=N)cc3C3CC3)C2=O)c1 [Example 136, 4-Cyclopropyl-6-((2-imino-3-methyl-2,3-dihydro-1H-imidazol-1-yl)methyl)-2-((4-methoxypyridin-2-yl)methyl)isoindolin-1-one]	> 0.938 µM	–
CCn1cc(-c2cc(Cn3ccnc3C)cc3c2CCN(Cc2cn(C)nc2C)C3=O)c(C(F)(F)F)n1 [Example 20, 2-((1,3-Dimethyl-1H-pyrazol-4-yl)methyl)-5-(1-ethyl-3-(trifluoromethyl)-1H-pyrazol-4-yl)-7-((2-methyl-1H-imidazol-1-yl)methyl)-3,4-dihydroisoquinolin-1(2H)-one]	0.508 µM	–
Cc1ccnc(C(C2CC2)N2CCc3c(cc(Cn4ccn(C)c4=N)cc3-c3ccc(F)cc3C)C2=O)c1 (centres unmarked) [Example 30, 2-(Cyclopropyl(4-methylpyridin-2-yl)methyl)-5-(4-fluoro-2-methylphenyl)-7-((2-imino-3-methyl-2,3-dihydro-1H-imidazol-1-yl)methyl)-3,4-dihydroisoquinolin-1(2H)-one]	–	0.095 µM
CCc1ccnc([C@H](C)N2CCc3c(cc(Cn4ccnc4C)cc3-c3cn(C)nc3C(F)(F)F)C2=O)c1 [Example 175, (S)-2-(1-(4-Ethylpyridin-2-yl)ethyl)-7-((2-methyl-1H-imidazol-1-yl)methyl)-5-(1-methyl-3-(trifluoromethyl)-1H-pyrazol-4-yl)-3,4-dihydroisoquinolin-1(2H)-one]	< 0.05 µM	–
O=C1c2cc(Cn3ccnc3)ccc2CCN1Cc1cc(Cl)cc(Cl)c1 [Example 1, 7-((1H-Imidazol-1-yl)methyl)-2-(3,5-dichlorobenzyl)-3,4-dihydroisoquinolin-1(2H)-one]	0.239 µM	–
Cc1cc([C@H](C)N2CCc3c(cc(CNc4cccc(=O)[nH]4)cc3-c3cn(C)nc3C(F)(F)F)C2=O)ccc1F [Example 142, (S)-2-(1-(4-Fluoro-3-methylphenyl)ethyl)-5-(1-methyl-3-(trifluoromethyl)-1H-pyrazol-4-yl)-7-(((6-oxo-1,6-dihydropyridin-2-yl)amino)methyl)-3,4-dihydroisoquinolin-1(2H)-one]	> 0.938 µM	–
COc1ccnc([C@H](C)N2CCc3c(cc(Cn4ccnc4C)cc3-c3ccc(F)cc3C)C2=O)c1 [Example 168, (S)-5-(4-Fluoro-2-methylphenyl)-2-(1-(4-methoxypyridin-2-yl)ethyl)-7-((2-methyl-1H-imidazol-1-yl)methyl)-3,4-dihydroisoquinolin-1(2H)-one]	< 0.05 µM	–
Cc1cc([C@H](C)N2CCc3c(cc(Cn4ccnc4C)cc3-c3cn(C)nc3C)C2=O)ccc1F [Example 146, (S)-5-(1,3-Dimethyl-1H-pyrazol-4-yl)-2-(1-(4-fluoro-3-methylphenyl)ethyl)-7-((2-methyl-1H-imidazol-1-yl)methyl)-3,4-dihydroisoquinolin-1(2H)-one]	< 0.05 µM	–
COc1ccnc(CN2CCc3c(cc(Cn4ccoc4=N)cc3-c3cn(C)nc3C)C2=O)c1 [Example 85, 5-(1,3-Dimethyl-1H-pyrazol-4-yl)-7-((2-iminooxazol-3(2H)-yl)methyl)-2-((4-methoxypyridin-2-yl)methyl)-3,4-dihydroisoquinolin-1(2H)-one]	0.057 µM	–
CCn1cc(-c2cc(Cn3ccsc3=N)cc3c2CCN([C@@H](C)c2cc(OC)ccn2)C3=O)c(C(F)(F)F)n1 [Example 104, (S)-5-(1-Ethyl-3-(trifluoromethyl)-1H-pyrazol-4-yl)-7-((2-iminothiazol-3(2H)-yl)methyl)-2-(1-(4-methoxypyridin-2-yl)ethyl)-3,4-dihydroisoquinolin-1(2H)-one]	< 0.05 µM	–
CCc1ccc(OCC(=O)NCc2cccnc2)c(CN2CCc3c(cc(Cn4ccnc4C)cc3-c3cn(C)nc3C(F)(F)F)C2=O)c1 [Example 215, 2-(4-Ethyl-2-((7-((2-methyl-1H-imidazol-1-yl)methyl)-5-(1-methyl-3-(trifluoromethyl)-1H-pyrazol-4-yl)-1-oxo-3,4-dihydroisoquinolin-2(19)-yl)methyl)phenoxy)-N-(pyridin-3-ylmethyl)acetamide]	0.168 µM	–
Cc1nccn1Cc1cc2c(c(-c3cn(C)nc3C(F)(F)F)c1)CCN(CC1CCC(=O)N(C)C1)C2=O (centres unmarked) [Example 172, 7-((2-Methyl-1H-imidazol-1-yl)methyl)-5-(1-methyl-3-(trifluoromethyl)-1H-pyrazol-4-yl)-2-((1-methyl-6-oxopiperidin-3-yl)methyl)-3,4-dihydroisoquinolin-1(2H)-one]	0.221 µM	–

Second part, led by results:

GI50 [1]	SMILES	GI50
0.87 µM	CCn1cc(-c2cc(Cn3cc4n(c3=N)CCC4)cc3c2CCN(Cc2cc(OC)ccn2)C3=O)c(C(F)(F)F)n1 [Example 56, 5-(1-Ethyl-3-(trifluoromethyl)-1H-pyrazol-4-yl)-7-((3-imino-6,7-dihydro-3H-pyrrolo[1,2-c]imidazol-2(5H)-yl)methyl)-2-((4-methoxypyridin-2-yl)methyl)-3,4-dihydroisoquinolin-1(2H)-one]	–
0.95 µM	Cc1nccn1Cc1cc2c(c(-c3cn(C)nc3C(F)(F)F)c1)CCN(Cc1cccc(Cl)c1)C2=O [Example 226, 2-(3-Chlorobenzyl)-7-((2-methyl-1H-imidazol-1-yl)methyl)-5-(1-methyl-3-(trifluoromethyl)-1H-pyrazol-4-yl)-3,4-dihydroisoquinolin-1(2H)-one]	–
0.835 µM	Cc1nccn1Cc1cc2c(c(-c3cn(C)nc3C(F)(F)F)c1)CCN(Cc1ccc3c(c1)OCO3)C2=O [Example 170, 2-(Benzo[d][1,3]dioxol-5-ylmethyl)-7-((2-methyl-1H-imidazol-1-yl)methyl)-5-(1-methyl-3-(trifluoromethyl)-1H-pyrazol-4-yl)-3,4-dihydroisoquinolin-1(2H)-one]	–
0.199 µM	C=Cc1cccc(CN2CCc3c(cc(Cn4ccnc4C)cc3-c3cn(C)nc3C(F)(F)F)C2=O)c1 [Example 235, 7-((2-Methyl-1H-imidazol-1-yl)methyl)-5-(1-methyl-3-(trifluoromethyl)-1H-pyrazol-4-yl)-2-(3-vinylbenzyl)-3,4-dihydroisoquinolin-1(2H)-one]	–
> 0.938 µM	COc1ccnc(CN2CCc3c(cc(Cn4nc5ccccn5c4=N)cc3-c3cn(C)nc3C(F)(F)F)C2=O)c1 [Example 125, 7-((3-Imino-[1,2,4]triazolo[4,3-a]pyridin-2(3H)-yl)methyl)-2-((4-methoxypyridin-2-yl)methyl)-5-(1-methyl-3-(trifluoromethyl)-1H-pyrazol-4-yl)-3,4-dihydroisoquinolin-1(2H)-one]	–
0.935 µM	COc1cc(CN2CCc3c(cc(Cn4cnn(C)c4=N)cc3-c3ncc(F)cc3C)C2=O)cc(OC)c1 [Example 124, 2-(3,5-Dimethoxybenzyl)-5-(5-fluoro-3-methylpyridin-2-yl)-7-((5-imino-1-methyl-1,5-dihydro-4H-1,2,4-triazol-4-yl)methyl)-3,4-dihydroisoquinolin-1(2H)-one]	–
2.28 µM	COc1ccnc(CN2Cc3c(cc(Cn4ccn(C)c4=N)cc3-c3ccc(F)cc3C)C2=O)c1 [Example 138, 4-(4-Fluoro-2-methylphenyl)-6-((2-imino-3-methyl-2,3-dihydro-1H-imidazol-1-yl)methyl)-2-((4-methoxypyridin-2-yl)methyl)isoindolin-1-one]	–
0.55 µM	Cc1nccn1Cc1cc2c(c(-c3cn(C)nc3C(F)(F)F)c1)CCN(Cc1cccc(-c3ccsc3)c1)C2=O [Example 231, 7-((2-Methyl-1H-imidazol-1-yl)methyl)-5-(1-methyl-3-(trifluoromethyl)-1H-pyrazol-4-yl)-2-(3-(thiophen-3-yl)benzyl)-3,4-dihydroisoquinolin-1(2H)-one]	–
0.149 µM	CCc1ccc(OC)c(CN2CCc3c(cc(Cn4ccnc4C)cc3-c3cn(C)nc3C(F)(F)F)C2=O)c1 [Example 217, 2-(5-Ethyl-2-methoxybenzyl)-7-((2-methyl-1H-imidazol-1-yl)methyl)-5-(1-methyl-3-(trifluoromethyl)-1H-pyrazol-4-yl)-3,4-dihydroisoquinolin-1(2H)-one]	–
< 0.05 µM	COc1ccnc(CN2CCc3c(cc(Cn4ccnc4C)cc3-c3cn(C)nc3C(F)(F)F)C2=O)c1 [Example 8, 2-((4-Methoxypyridin-2-yl)methyl)-7-((2-methyl-1H-imidazol-1-yl)methyl)-5-(1-methyl-3-(trifluoromethyl)-1H-pyrazol-4-yl)-3,4-dihydroisoquinolin-1(2H)-one]	–
< 0.05 µM	COc1cc(CN2CCc3c(cc(Cn4ccn(C)c4=N)cc3-c3cn(C)nc3C(F)(F)F)C2=O)cc(OC)c1 [Example 39, 2-(3,5-Dimethoxybenzyl)-7-((2-imino-3-methyl-2,3-dihydro-1H-imidazol-1-yl)methyl)-5-(1-methyl-3-(trifluoromethyl)-1H-pyrazol-4-yl)-3,4-dihydroisoquinolin-1(2H)-one]	–
0.36 µM	COc1cc(CN2CCc3c(cc(Cn4cc(C)nc4C)cc3-c3cn(C)nc3C(F)(F)F)C2=O)cc(OC)c1 [Example 17, 2-(3,5-Dimethoxybenzyl)-7-((2,4-dimethyl-1H-imidazol-1-yl)methyl)-5-(1-methyl-3-(trifluoromethyl)-1H-pyrazol-4-yl)-3,4-dihydroisoquinolin-1(2H)-one]	–
0.143 µM	COc1cc(CN2CCc3c(cc(Cn4ccn(C)c4=N)cc3-c3cccnc3C(F)(F)F)C2=O)cc(OC)c1 [Example 35, 2-(3,5-Dimethoxybenzyl)-7-((2-imino-3-methyl-2,3-dihydro-1H-imidazol-1-yl)methyl)-5-(2-(trifluoromethyl)pyridin-3-yl)-3,4-dihydroisoquinolin-1(2H)-one]	–
< 0.05 µM	CCn1cc(-c2cc(Cn3ccn(C(F)F)c3=N)cc3c2CCN([C@@H](C)c2cc(OC)ccn2)C3=O)c(C(F)(F)F)n1 [Example 67, (S)-7-((3-(Difluoromethyl)-2-imino-2,3-dihydro-1H-imidazol-1-yl)methyl)-5-(1-ethyl-3-(trifluoromethyl)-1H-pyrazol-4-yl)-2-(1-(4-methoxypyridin-2-yl)ethyl)-3,4-dihydroisoquinolin-1(2H)-one]	–

From US11999716B2, “WDR5 inhibitors and modulators” (priority 2018, dated 2024)
